From patent US20180318287A1, “Imidazo[4,5-c]quinolin-2-one Compounds and Their Use in Treating Cancer” (ASTRAZENECA AB, priority 2015, published 2018)
Like-named read-outs stand apart in the source and are kept apart here.

Experiments:
Format in all cases: cell-based
[1] = target: T1, ATR kinase (Homo sapiens, UniProt Q13535); assay: Assay b): ATR cellular potency (pChk1 Ser345 in HT29 cells after 4NQO)
T1 construct: endogenous in cells; host or cells: HT29 cells (ECACC #85061109)
How it was run: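 HT29 cells were preincubated with compound for 1 h at 37 °C, 5% CO2, then stimulated with 4NQO for a further 1 h; wells without 4NQO served as the null control. Cells permeabilised with 0.1% Triton X-100. Chk1 Ser345 phosphorylation imaged on ArrayScan VTI at 10× objective.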

[2] = target: T2, mTOR (Homo sapiens, UniProt P42345); assay: Assay d): mTOR cellular potency (phospho-AKT Ser473 in MDA-MB-468 cells)
T2 construct: phosphorylation of the Akt protein at Ser473 (AKT lies downstream of PI3Kα in the signal transduction pathway) in the MDA-MB-468 cells; endogenous in cells; host or cells: MDA-MB-468 cells (ATCC HTB 132)
Procedure: This assay was used to measure mTOR inhibition in cells. The aim of the phospho-AKT cell based mechanism of action assay using the Acumen Explorer is to identify inhibitors of either PI3Kα or mTOR-Rictor (Rapamycin insensitive companion of mTOR). This is measured by any decrease in the phosphorylation of the Akt protein at Ser473 (AKT lies downstream of PI3Kα in the signal transduction pathway) in the MDA-MB-468 cells following treatment with compound.
MDA-MB-468 cells (human breast adenocarcinoma #ATCC HTB 132) were seeded at 1500 cells/well in 40 μl of DMEM containing 10% FBS and 1% glutamine into Greiner 384 well black flat-bottomed plates. Cell plates were incubated for 18 h in a 37° C. incubator before dosing with compounds of Formula (I) in 100% DMSO using acoustic dispensing. Compounds were dosed in a 12 point concentration range into a randomised plate map. Control wells were generated either by dosing of 100% DMSO (max signal) or addition of a reference compound (a PI3K-βinhibitor) that completely eliminated the pAKT signal (min control). Plates were incubated at 37° C. for 2 h; cells were then fixed by the addition of 10 μl of a 3.7% formaldehyde solution. After 30 minutes the plates were washed with PBS using a Tecan PW384 plate washer. Wells were blocked and cells permeabilised with the addition of 40 μl of PBS containing 0.5% Tween20 and 1% Marvel™ (dried milk powder) and incubated for 60 minutes at r.t. The plates were washed with PBS containing 0.5% (v/v) Tween20 and 20 μl rabbit anti-phospho AKT Ser473 (Cell Signalling Technologies, #3787) in same PBS-Tween+1% Marvel™ was added and incubated overnight at 4° C.
Plates were washed 3 times with PBS+0.05% Tween 20 using a Tecan PW384. 20 μl of secondary antibody Alexa Fluor 488 anti-Rabbit (Molecular Probes, #A11008) diluted in PBS+0.05% Tween20 containing 1% Marvel™ was added to each well and incubated for 1 h at r.t. Plates were washed three times as before then 20 μl PBS added to each well and plates sealed with a black plate sealer.
The plates were read on an Acumen plate reader as soon as possible, measuring green fluorescence after excitation with 488 nm laser. Using this system IC50 values were generated and quality of plates was determined by control wells. Reference compounds were run each time to monitor assay performance.

[3] = target: PI3K-α (Homo sapiens, UniProt P42336); assay: Assay c): PI3K cellular potency (phospho-Akt T308 ELISA in BT474 cells); settings: for Assay c) PI3Ka Cell IC50: BT474 cells, phospho-Akt T308, 2 h, Table 3 comparative data; for IC50: BT474 cells, phospho-Akt T308, 2 h; Table 2; read-out: Assay c) PI3Kα Cell IC50
From the text: This assay was used to measure PI3K-α inhibition in cells. PDK1 was identified as the upstream activation loop kinase of protein kinase B (Akt1), which is essential for the activation of PKB. Activation of the lipid kinase phosphoinositide 3 kinase (PI3K) is critical for the activation of PKB by PDK1.
Following ligand stimulation of receptor tyrosine kinases, PI3K is activated, which converts PIP2 to PIP3, which is bound by the PH domain of PDK1 resulting in recruitment of PDK1 to the plasma membrane where it phosphorylates AKT at Thr308 in the activation loop.
The aim of this cell-based mode of action assay is to identify compounds that inhibit PDK activity or recruitment of PDK1 to membrane by inhibiting PI3K activity. Phosphorylation of phospho-Akt (T308) in BT474c cells following treatment with compounds for 2 h is a direct measure of PDK1 and indirect measure of PI3K activity.
BT474 cells (human breast ductal carcinoma, ATCC HTB-20) were seeded into black 384 well plates (Costar, #3712) at a density of 5600 cells/well in DMEM containing 10% FBS and 1% glutamine and allowed to adhere overnight.
The following morning compounds in 100% DMSO were added to assay plates by acoustic dispensing. After a 2 h incubation at 37° C. and 5% CO2, the medium was aspirated and the cells were lysed with a buffer containing 25 mM Tris, 3 mM EDTA, 3 mM EGTA, 50 mM sodium fluoride, 2 mM Sodium orthovanadate, 0.27M sucrose, 10 mM β-glycerophosphate, 5 mM sodium pyrophosphate, 0.5% Triton X-100 and complete protease inhibitor cocktail tablets (Roche #04 693 116 001, used 1 tab per 50 ml lysis buffer).
After 20 minutes, the cell lysates were transferred into ELISA plates (Greiner #781077) which had been pre-coated with an anti total-AKT antibody in PBS buffer and non-specific binding was blocked with 1% BSA in PBS containing 0.05% Tween 20. Plates were incubated over night at 4° C. The next day the plates were washed with PBS buffer containing 0.05% Tween 20 and further incubated with a mouse monoclonal anti-phospho AKT T308 for 2 h. Plates were washed again as above before addition of a horse anti-mouse-HRP conjugated secondary antibody. Following a 2 h incubation at r.t., plates were washed and QuantaBlu substrate working solution (Thermo Scientific #15169, prepared according to provider's instructions) was added to each well. The developed fluorescent product was stopped after 60 minutes by addition of Stop solution to the wells. Plates were read using a Tecan Safire plate reader using 325 nm excitation and 420 nm emission wavelengths respectively. Except where specified, reagents contained in the Path Scan Phospho AKT (Thr308) sandwich ELISA kit from Cell Signalling (#7144) were used in this ELISA assay.

[4] = target: T3, ATM kinase (Homo sapiens, UniProt Q13315); assay: Assay a): ATM cellular potency (pATM Ser1981 in irradiated HT29 cells)
T3 construct: endogenous in cells; host or cells: HT29 cells (ECACC #85061109)
How it was run: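 HT29 cells pretreated with compound for 1 h at 37° C, X-ray irradiated (~600 cGy), then incubated 1 h more. Cells fixed, Triton-permeabilised and immunostained for pATM Ser1981; fluorescence quantified by ArrayScan high-content imaging.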

[5] = HT29 cells, 4NQO, pChk1 Ser345; Table 3 comparative data; read-out: Assay b) ATR Cell IC50
[6] = MDA-MB-468 cells, phospho-AKT Ser473, 2 h; Table 3 comparative data; read-out: Assay d) mTOR Cell IC50
[7] = HT29 cells, X-ray irradiation, pATM Ser1981; Table 3 comparative data; read-out: Assay a) ATM Cell IC50
[8] = HT29 cells, 4NQO, pChk1 Ser345; Table 2; read-out: Assay b) ATR Cell IC50
[9] = HT29 cells, X-ray irradiation, pATM Ser1981; Table 2; read-out: Assay a) ATM Cell IC50
[10] = MDA-MB-468 cells, phospho-AKT Ser473, 2 h; Table 2; read-out: Assay d) mTOR Cell IC50

T3 sequence (Q13315 whole entry): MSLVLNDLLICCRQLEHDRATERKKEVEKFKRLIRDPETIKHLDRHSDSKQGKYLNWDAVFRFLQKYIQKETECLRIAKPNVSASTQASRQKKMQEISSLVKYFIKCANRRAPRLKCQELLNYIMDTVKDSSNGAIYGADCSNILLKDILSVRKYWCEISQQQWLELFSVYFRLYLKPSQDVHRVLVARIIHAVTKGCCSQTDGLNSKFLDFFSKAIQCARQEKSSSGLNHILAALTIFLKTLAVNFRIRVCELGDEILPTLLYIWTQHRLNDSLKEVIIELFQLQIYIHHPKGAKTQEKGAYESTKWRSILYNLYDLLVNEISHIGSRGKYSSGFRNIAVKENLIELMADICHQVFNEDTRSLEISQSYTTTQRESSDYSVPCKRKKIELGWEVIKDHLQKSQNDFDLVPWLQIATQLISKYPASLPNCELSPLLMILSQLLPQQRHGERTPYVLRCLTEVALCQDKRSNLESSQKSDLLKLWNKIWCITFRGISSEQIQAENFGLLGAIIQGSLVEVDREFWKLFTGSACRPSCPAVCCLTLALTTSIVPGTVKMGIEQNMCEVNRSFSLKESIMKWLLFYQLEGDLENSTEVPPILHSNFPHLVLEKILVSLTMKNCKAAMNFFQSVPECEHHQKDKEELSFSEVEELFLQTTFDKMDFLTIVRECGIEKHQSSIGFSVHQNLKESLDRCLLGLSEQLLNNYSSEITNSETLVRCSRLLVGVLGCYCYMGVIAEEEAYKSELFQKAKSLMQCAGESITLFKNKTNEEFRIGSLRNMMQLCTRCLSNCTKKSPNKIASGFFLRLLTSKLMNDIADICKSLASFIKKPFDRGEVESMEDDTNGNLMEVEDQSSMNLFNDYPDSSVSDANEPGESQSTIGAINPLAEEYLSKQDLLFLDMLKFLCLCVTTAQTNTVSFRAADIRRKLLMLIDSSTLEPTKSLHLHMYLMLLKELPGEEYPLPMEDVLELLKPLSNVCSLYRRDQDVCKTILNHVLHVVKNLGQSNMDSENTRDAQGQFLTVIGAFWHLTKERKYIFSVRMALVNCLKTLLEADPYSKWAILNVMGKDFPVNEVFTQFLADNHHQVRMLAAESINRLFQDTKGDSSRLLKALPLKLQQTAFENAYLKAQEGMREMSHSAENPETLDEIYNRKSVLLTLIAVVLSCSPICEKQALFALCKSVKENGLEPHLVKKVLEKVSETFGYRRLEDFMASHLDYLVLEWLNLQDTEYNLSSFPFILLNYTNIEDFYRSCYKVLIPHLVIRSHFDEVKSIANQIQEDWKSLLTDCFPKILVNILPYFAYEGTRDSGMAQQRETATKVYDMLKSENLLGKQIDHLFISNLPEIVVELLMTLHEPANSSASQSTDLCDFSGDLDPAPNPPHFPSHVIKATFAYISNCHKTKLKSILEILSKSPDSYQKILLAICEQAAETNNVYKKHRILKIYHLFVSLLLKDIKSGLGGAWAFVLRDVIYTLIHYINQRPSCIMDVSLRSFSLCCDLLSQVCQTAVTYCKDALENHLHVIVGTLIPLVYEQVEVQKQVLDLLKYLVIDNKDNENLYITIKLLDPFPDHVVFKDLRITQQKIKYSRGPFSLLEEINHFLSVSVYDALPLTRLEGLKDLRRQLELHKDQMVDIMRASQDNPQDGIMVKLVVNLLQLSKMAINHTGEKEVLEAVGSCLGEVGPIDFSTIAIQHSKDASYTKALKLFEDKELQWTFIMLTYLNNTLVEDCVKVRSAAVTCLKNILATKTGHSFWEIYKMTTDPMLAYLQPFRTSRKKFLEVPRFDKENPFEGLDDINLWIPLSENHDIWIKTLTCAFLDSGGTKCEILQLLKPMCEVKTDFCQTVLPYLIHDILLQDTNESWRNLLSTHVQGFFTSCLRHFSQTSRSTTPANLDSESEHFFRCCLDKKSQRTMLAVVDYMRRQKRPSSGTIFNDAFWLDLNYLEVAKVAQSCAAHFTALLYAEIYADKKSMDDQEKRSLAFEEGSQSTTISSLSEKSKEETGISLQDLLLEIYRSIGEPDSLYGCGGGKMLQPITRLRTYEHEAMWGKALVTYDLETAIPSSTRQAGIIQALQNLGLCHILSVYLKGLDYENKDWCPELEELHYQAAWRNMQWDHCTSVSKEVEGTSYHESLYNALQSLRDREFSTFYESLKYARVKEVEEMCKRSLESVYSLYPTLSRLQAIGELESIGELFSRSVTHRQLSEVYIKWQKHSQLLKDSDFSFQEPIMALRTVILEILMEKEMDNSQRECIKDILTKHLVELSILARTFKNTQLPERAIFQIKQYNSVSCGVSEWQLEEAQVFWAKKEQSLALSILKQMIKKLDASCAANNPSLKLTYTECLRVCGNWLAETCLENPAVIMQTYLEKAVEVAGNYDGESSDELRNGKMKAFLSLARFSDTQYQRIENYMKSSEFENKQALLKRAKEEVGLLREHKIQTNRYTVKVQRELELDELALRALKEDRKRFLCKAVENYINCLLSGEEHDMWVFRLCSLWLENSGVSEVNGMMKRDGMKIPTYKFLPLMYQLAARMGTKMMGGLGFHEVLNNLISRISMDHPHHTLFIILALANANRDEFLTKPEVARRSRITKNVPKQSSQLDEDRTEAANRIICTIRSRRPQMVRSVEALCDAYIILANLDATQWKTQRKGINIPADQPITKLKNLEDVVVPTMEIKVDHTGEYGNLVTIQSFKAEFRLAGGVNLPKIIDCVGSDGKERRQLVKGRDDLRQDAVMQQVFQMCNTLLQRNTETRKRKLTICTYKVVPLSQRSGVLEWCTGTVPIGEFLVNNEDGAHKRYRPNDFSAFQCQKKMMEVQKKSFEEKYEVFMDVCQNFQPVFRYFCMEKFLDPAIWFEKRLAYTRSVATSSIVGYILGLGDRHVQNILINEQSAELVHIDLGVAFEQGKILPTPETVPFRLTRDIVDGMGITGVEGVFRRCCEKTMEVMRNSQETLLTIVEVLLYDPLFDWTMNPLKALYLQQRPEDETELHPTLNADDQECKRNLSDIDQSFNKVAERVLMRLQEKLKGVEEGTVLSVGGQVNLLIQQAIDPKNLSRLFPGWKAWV
Chain of PI3K-α (P42336 whole entry): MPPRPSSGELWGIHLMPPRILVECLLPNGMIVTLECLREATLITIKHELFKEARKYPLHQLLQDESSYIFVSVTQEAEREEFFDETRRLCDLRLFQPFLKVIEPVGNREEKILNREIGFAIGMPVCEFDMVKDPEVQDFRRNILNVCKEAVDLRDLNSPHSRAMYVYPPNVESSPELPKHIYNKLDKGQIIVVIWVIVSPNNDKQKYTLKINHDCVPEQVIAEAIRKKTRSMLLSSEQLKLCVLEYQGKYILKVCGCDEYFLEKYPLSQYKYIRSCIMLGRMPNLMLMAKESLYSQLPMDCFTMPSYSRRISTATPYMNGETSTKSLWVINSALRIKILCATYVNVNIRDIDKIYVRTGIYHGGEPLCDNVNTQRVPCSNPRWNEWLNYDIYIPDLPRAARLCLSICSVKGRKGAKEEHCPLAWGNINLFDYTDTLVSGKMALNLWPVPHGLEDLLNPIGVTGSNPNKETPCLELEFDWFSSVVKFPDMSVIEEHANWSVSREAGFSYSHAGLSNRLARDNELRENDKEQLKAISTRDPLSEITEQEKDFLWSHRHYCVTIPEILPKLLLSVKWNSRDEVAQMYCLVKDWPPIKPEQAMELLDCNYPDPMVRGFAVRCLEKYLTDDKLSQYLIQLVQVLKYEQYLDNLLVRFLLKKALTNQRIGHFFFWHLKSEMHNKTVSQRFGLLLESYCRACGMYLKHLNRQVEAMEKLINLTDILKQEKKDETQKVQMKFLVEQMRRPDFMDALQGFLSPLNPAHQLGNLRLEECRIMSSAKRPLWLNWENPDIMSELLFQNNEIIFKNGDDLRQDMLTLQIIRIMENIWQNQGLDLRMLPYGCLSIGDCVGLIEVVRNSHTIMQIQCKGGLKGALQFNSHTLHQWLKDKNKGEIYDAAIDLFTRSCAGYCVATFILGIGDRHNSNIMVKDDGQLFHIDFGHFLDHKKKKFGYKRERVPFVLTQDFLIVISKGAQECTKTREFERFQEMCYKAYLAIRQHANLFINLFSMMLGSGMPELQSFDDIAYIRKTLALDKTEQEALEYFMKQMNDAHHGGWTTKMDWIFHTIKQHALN
Chain of PI3K-α (P27986 2-724, further chain): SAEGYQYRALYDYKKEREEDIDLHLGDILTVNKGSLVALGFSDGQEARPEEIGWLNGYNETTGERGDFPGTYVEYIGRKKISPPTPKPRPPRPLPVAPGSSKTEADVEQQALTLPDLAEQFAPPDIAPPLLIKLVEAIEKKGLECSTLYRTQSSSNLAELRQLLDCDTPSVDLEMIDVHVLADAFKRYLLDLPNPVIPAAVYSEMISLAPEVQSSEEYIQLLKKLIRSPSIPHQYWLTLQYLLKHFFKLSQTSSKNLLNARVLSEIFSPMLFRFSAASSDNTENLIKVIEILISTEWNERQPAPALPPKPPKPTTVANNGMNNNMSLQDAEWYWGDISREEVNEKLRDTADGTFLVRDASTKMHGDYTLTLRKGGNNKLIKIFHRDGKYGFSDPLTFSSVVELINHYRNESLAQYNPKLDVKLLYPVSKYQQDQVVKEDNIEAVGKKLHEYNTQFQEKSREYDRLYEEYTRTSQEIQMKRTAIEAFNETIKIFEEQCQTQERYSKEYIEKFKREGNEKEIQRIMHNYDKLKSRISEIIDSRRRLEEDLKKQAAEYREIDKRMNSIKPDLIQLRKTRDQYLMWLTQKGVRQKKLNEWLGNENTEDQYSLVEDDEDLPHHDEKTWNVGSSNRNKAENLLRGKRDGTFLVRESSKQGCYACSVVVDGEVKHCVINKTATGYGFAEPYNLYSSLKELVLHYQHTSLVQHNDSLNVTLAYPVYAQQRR

Row | Structure (SMILES) | IC50 [1, 5] [nM] | IC50 [2, 6] [nM] | Assay c) PI3Ka Cell IC50 [3] [nM] | IC50 [4, 7] [nM] | IC50 [1, 8] [nM] | IC50 [3] [nM] | IC50 [4, 9] [nM] | IC50 [2, 10] [nM]
1 | COc1ccc(-c2ccc3ncc4c(c3c2)n(C2CCNCC2)c(=O)n4C)cn1 [CN102372711A Compound 1, reference compound] | 281 | 237 | 188 | – | – | – | – | –
2 | COc1ccc(-c2ccc3ncc4c(c3c2)n(C2CCN(C(C)=O)CC2)c(=O)n4C)cn1 [CN102372711A Compound 5, reference compound] | 64.4 | 113 | 153 | 26.5 | – | – | – | –
3 | Cn1c(=O)n(C2CNC2)c2c3cc(-c4cnc5[nH]ccc5c4)ccc3ncc21 [CN102399218A Compound 61, reference compound] | 1480 | 177 | 1730 | 3460 | – | – | – | –
4 | Cn1c(=O)n(C2CC2)c2c3cc(-c4cnc5[nH]ccc5c4)ccc3ncc21 [CN102399218A Compound 62, reference compound] | 56.3 | 15.5 | 149 | 80 | – | – | – | –
5 | Cn1c(=O)n(C2CC2)c2c3cc(-c4cnc(N)nc4)ccc3ncc21 [CN102399218A Compound 64, reference compound] | 162 | 287 | 247 | 216 | – | – | – | –
6 | Cn1c(=O)n(C2CCOCC2)c2c3cc(-c4cnc(N)nc4)ccc3ncc21 [CN102399218A Compound 94, reference compound] | 12.9 | 41.4 | 80.4 | 494 | – | – | – | –
7 | COc1ncc(-c2ccc3ncc4c(c3c2)n(C2CC2)c(=O)n4C)cc1NS(=O)(=O)C1CC1 [CN102399218A Compound 114, reference compound] | 68.6 | 46.9 | 13.1 | 74.1 | – | – | – | –
8 | CC(C)n1c(=O)n(C)c2cnc3ccc(-c4ccc(OCCN(C)C)cc4)cc3c21 [Example 5, 8-[4-[2-(Dimethylamino)ethoxy]phenyl]-1-isopropyl-3-methyl-imidazo[4,5-c]quinolin-2-one] | – | – | – | – | > 30000 | > 26900 | 14.8 | –
9 | CN(C)CCCOc1ccc(-c2ccc3ncc4c(c3c2)n([C@@H]2CCCOC2)c(=O)n4C)cc1 [Example 8, 8-[4-[3-(dimethylamino)propoxy]phenyl]-3-methyl-1-[(3R)-tetrahydropyran-3-yl]imidazo[4,5-c]quinolin-2-one] | – | – | – | – | > 30000 | 311 | – | 1420
10 | CN(C)CCCOc1ccc(-c2ccc3ncc4c(c3c2)n([C@H]2CCCOC2)c(=O)n4C)cc1 [Example 9, 8-[4-[3-(dimethylamino)propoxy]phenyl]-3-methyl-1-[(3S)-tetrahydropyran-3-yl]imidazo[4,5-c]quinolin-2-one] | – | – | – | – | > 30000 | 15200 | – | –
11 | CO[C@H]1C[C@@H](n2c(=O)n(C)c3cnc4cc(F)c(-c5ccc(OCCCN(C)C)cc5)cc4c32)C1 [Example 12, 8-[4-[3-(dimethylamino)propoxy]phenyl]-7-fluoro-1-(cis3-methoxycyclobutyl)-3-methyl-imidazo[4,5-c]quinolin-2-one] | – | – | – | – | > 30000 | 20400 | 1.88 | 5560
12 | CN(C)CCOc1ccc(-c2ccc3ncc4c(c3c2)n([C@H]2CCCOC2)c(=O)n4C)cc1 [Example 47, 8-[4-[2-(Dimethylamino)ethoxy]phenyl]-3-methyl-1-[(3S)-tetrahydropyran-3-yl]imidazo[4,5-c]quinolin-2-one] | – | – | – | – | > 30000 | > 30000 | 14.4 | 5530
